Results taken from PubChem BioAssay AID1259411 (Chemical Carcinogenesis Research Information System (CCRIS), 2018).
Calls of active or inactive are those of the source. No rule for the calls is given here.

Tested on: rodent carcinogenicity bioassays, tumor incidence
Test: CCRIS carcinogenicity studies
Summary of the method: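 Archive of carcinogenicity, mutagenicity, tumor promotion and tumor inhibition results drawn from journals, NCI reports and other sources, expert-reviewed; covers 1985-2011 and is no longer updated.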

In the case of `F`, the carcinogen call (Species: MOUSE, Strain/Sex: B6C3F1/FEMALE, Route: ORAL, Dose: 0, 25, 100, 175 PPM IN DRINKING WATER FOR 103 WK (STUDY DURATION: 103 WK), Dose: 0, 25, 100, 175 PPM IN DRINKING WATER FOR 103 WK (STUDY DURATION: 103 WK)) is reported as “inactive; negative”, the carcinogen call (Species: MOUSE, Strain/Sex: B6C3F1/MALE, Route: ORAL, Dose: 0, 25, 100, 175 PPM IN DRINKING WATER FOR 103 WK (STUDY DURATION: 103 WK), Dose: 0, 25, 100, 175 PPM IN DRINKING WATER FOR 103 WK (STUDY DURATION: 103 WK)) is reported as “inactive; negative” and the carcinogen call (Species: MOUSE, Strain/Sex: F344/MALE, Route: ORAL, Dose: 0, 25, 100, 175 PPM IN DRINKING WATER FOR 103 WK (STUDY DURATION: 103 WK), Dose: 0, 25, 100, 175 PPM IN DRINKING WATER FOR 103 WK (STUDY DURATION: 103 WK), Tumor Site: Type of Lesion: BONE: OSTEOSARCOMA) is reported as “equivocal”. For the same compound, the carcinogen call (Species: RAT, Strain/Sex: F344/FEMALE, Route: ORAL, Dose: 0, 25, 100, 175 PPM IN DRINKING WATER FOR 103 WK (STUDY DURATION: 103 WK), Dose: 0, 25, 100, 175 PPM IN DRINKING WATER FOR 103 WK (STUDY DURATION: 103 WK)) was “inactive; negative”, the carcinogen call (Species: RAT, Strain/Sex: SPRAGUE-DAWLEY/FEMALE, Route: ORAL, Dose: 0, 4, 10, 25 MG/KG/D ADDED TO LOW-FLUORIDE DIET FOR DURATION OF STUDY (STUDY DURATION: 99 WK), Dose: 0, 4, 10, 25 MG/KG/D ADDED TO LOW-FLUORIDE DIET FOR DURATION OF STUDY (STUDY DURATION: 99 WK)) was “inactive; negative” and the carcinogen call (Species: RAT, Strain/Sex: SPRAGUE-DAWLEY/MALE, Route: ORAL, Dose: 0, 4, 10, 25 MG/KG/D ADDED TO LOW-FLUORIDE DIET FOR DURATION OF STUDY (STUDY DURATION: 95 WK), Dose: 0, 4, 10, 25 MG/KG/D ADDED TO LOW-FLUORIDE DIET FOR DURATION OF STUDY (STUDY DURATION: 95 WK)) was “inactive; negative”.

With `OC(c1ccc(Cl)cc1)(c1ccc(Cl)cc1)C(Cl)(Cl)Cl` the carcinogen call (Species: MOUSE, Strain/Sex: B6C3F1/FEMALE, Route: ORAL, Dose: 0, 122, 243 PPM IN DIET, Dose: 0, 122, 243 PPM IN DIET) was “inactive; negative”, the carcinogen call (Species: MOUSE, Strain/Sex: B6C3F1/MALE, Route: ORAL, Dose: 0, 264, 528 PPM IN DIET, Dose: 0, 264, 528 PPM IN DIET, Tumor Site: Type of Lesion: LIVER: HEPATOCELLULAR CARCINOMA OR HEPATOCELLULAR ADENOMA) was “active; positive” and the carcinogen call (Species: RAT, Strain/Sex: OSBORNE-MENDEL/FEMALE, Route: ORAL, Dose: 0, 380, 760 PPM IN DIET, Dose: 0, 380, 760 PPM IN DIET) was “inactive; negative”. For the same compound, the carcinogen call (Species: RAT, Strain/Sex: OSBORNE-MENDEL/MALE, Route: ORAL, Dose: 0, 471, 942 PPM IN DIET, Dose: 0, 471, 942 PPM IN DIET) was “inactive; negative”.

In the case of `CCN(CC(F)(F)F)N=O`, the carcinogen call (Species: RAT, Strain/Sex: SPRAGUE-DAWLEY/MALE, Route: GAVAGE, Dose: 7.5, 15, 30, 60 MG/KG IN VEGETABLE OIL 2/WK, Dose: 7.5, 15, 30, 60 MG/KG IN VEGETABLE OIL 2/WK, Tumor Site: Type of Lesion: ESOPHAGUS: CARCINOMA, NASAL CAVITY: SQUAMOUS CELL CARCINOMA) is reported as “active; positive”.

In the case of `C[C@@H]1CCC[C@H](C)N1CCC[C@@](O)(c1ccccc1)c1ccccn1`, the carcinogen call (Species: MOUSE, Strain/Sex: B6C3F1/FEMALE, Route: ORAL, Dose: 0, 10, 25, 50 MG/KG/D IN DIET FOR 104 WK (STUDY DURATION: 104 WK), Dose: 0, 10, 25, 50 MG/KG/D IN DIET FOR 104 WK (STUDY DURATION: 104 WK)) is reported as “inactive; negative”, the carcinogen call (Species: MOUSE, Strain/Sex: B6C3F1/MALE, Route: ORAL, Dose: 0, 10, 25, 50 MG/KG/D IN DIET FOR 104 WK (STUDY DURATION: 104 WK), Dose: 0, 10, 25, 50 MG/KG/D IN DIET FOR 104 WK (STUDY DURATION: 104 WK)) is reported as “inactive; negative” and the carcinogen call (Species: RAT, Strain/Sex: WISTAR/FEMALE, Route: ORAL, Dose: 0, 10, 25, 50 MG/KG/D IN DIET FOR 104 WK (STUDY DURATION: 104 WK), Dose: 0, 10, 25, 50 MG/KG/D IN DIET FOR 104 WK (STUDY DURATION: 104 WK)) is reported as “inactive; negative”. For the same compound, the carcinogen call (Species: RAT, Strain/Sex: WISTAR/MALE, Route: ORAL, Dose: 0, 10, 25, 50 MG/KG/D IN DIET FOR 104 WK (STUDY DURATION: 104 WK), Dose: 0, 10, 25, 50 MG/KG/D IN DIET FOR 104 WK (STUDY DURATION: 104 WK)) was “inactive; negative”.

With `CCOS(=O)(=O)OCC` the carcinogen call (Species: RAT, Route: ORAL, Tumor Site: Type of Lesion: FORESTOMACH) was “active; positive” and the carcinogen call (Species: RAT, Route: SUBCUTANEOUS, Tumor Site: Type of Lesion: INJECTION SITE) was “active; positive”.
